These results are taken from article PMC10100467, “The Function of Two Radical‐SAM Enzymes, HcgA and HcgG, in the Biosynthesis of the [Fe]‐Hydrogenase Cofactor” (Angewandte Chemie (International Ed. in English), 2022).

The test concerns the target T1, HcgA (Methanococcus maripaludis, UniProt Q6M0Z2).
T1 construct: His-tagged, produced in Escherichia coli with helper plasmid pRKISC; [4Fe-4S] radical SAM enzyme, CX5CX2C motif
T1 sequence (Q6M0Z2 1-341): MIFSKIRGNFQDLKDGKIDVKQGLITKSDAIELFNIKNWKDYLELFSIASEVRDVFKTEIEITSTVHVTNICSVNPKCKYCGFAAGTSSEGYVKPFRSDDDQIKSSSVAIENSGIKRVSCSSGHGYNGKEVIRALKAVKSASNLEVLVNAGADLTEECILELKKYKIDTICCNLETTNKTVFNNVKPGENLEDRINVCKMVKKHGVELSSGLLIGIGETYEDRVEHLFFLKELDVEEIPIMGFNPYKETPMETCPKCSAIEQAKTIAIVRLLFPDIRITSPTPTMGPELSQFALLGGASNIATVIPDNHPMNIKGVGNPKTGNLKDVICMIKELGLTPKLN
As to the kind of experiment: radical SAM activity, HPLC-MS of product […]. Type of test: biochemical. To be noted: 1 mM SAH, without added SAM; 3 kDa filtrate of the delta-hcgA cell extract as substrate.

Regarding `Nc1ncnc2c1ncn2[C@@H]1O[C@H](CSCC[C@H](N)C(=O)O)[C@@H](O)[C@H]1O` [S-adenosyl homocysteine], the “relative activity (%)” value is on record as “The HcgA activity was inhibited by a radical SAM enzyme inhibitor, S‐adenosyl homocysteine”.
